A value given as a limit tells only on which side of the number the result lay.

Chain of KRas G12C (P01116 1-188 isoform P01116-2 G12C): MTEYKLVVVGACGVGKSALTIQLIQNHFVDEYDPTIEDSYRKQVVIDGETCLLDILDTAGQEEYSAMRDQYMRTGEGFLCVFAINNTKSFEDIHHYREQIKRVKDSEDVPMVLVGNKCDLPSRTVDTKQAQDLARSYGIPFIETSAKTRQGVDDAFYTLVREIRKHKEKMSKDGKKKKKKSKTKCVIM

For this test, the target named is KRas G12C (Homo sapiens, UniProt P01116, G12C). Put plainly: Cellular inhibition of KRas G12C measured by Phospho-ERK in NCI-H358 cells. It counts as cell-based. Particulars: pERK(Thr202/Tyr204) normalized with GAPDH, NCI-H358 cells, 3 hours; read-out: IC50. Summed up:
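Ratio of phospho-ERK(Thr202/Tyr204) to GAPDH, read by near-infrared secondary antibodies on fixed, permeabilised NCI-H358 cells, expressed relative to DMSO control. Compound exposure was 3 h at 0.5% DMSO. IC50 values come from 4-parameter curve fits.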
For `C=C(F)C(=O)N1CCN(c2nc(OC[C@@H]3CC(F)(F)CN3C)nc3c2CCN(c2c(C)c(C)cc4[nH]ncc24)C3)C[C@@H]1CC#N` [Example 613, 2-((S)-4-(2-(((S)-4,4-difluoro-1-methylpyrrolidin-2-yl)methoxy)-7-(5,6-dimethyl-1H-indazol-4-yl)-5,6,7,8-tetrahydropyrido[3,4-d]pyrimidin-4-yl)-1-(2-fluoroacryloyl)piperazin-2-yl)acetonitrile], the IC50 is 0.1 to 1000 nM. Take `C=CC(=O)N1CC2(C1)CN(c1nc(OC(C)CN(C)C)nc3c1CCN(c1cc(O)cc4ccccc14)C3)C2` (stereo not drawn) [Example 18, 1-(6-(2-((1-(dimethylamino)propan-2-yl)oxy)-7-(3-hydroxynaphthalen-1-yl)-5,6,7,8-tetrahydropyrido[3,4-d]pyrimidin-4-yl)-2,6-diazaspiro[3.3]heptan-2-yl)prop-2-en-1-one]: the IC50 is greater than 1000 nM. As for `C=CC(=O)N1CCN(c2nc(OC[C@@H]3CCN(C)C3)nc3c2CCN(c2cc(O)cc4ccccc24)C3)C[C@@H]1CC#N` [Example 350, 2-((S)-1-acryloyl-4-(7-(3-hydroxynaphthalen-1-yl)-2-(((R)-1-methylpyrrolidin-3-yl)methoxy)-5,6,7,8-tetrahydropyrido[3,4-d]pyrimidin-4-yl)piperazin-2-yl)acetonitrile], the IC50 is 0.1 to 1000 nM. With `C=CC(=O)N1CCN(c2nc(OC(C)CN(C)C)nc3c2CCN(c2cccc4ccccc24)C3)CC1` (stereo not drawn) [Example 24, 1-(4-(2-((1-(dimethylamino)propan-2-yl)oxy)-7-(naphthalen-1-yl)-5,6,7,8-tetrahydropyrido[3,4-d]pyrimidin-4-yl)piperazin-1-yl)prop-2-en-1-one], the IC50 was greater than 1000 nM. In the case of `C=CC(=O)N1CCN(c2nc(OC[C@H]3CN(C)[C@H](C)CO3)nc3c2CCN(c2cccc4ccccc24)C3)C[C@@H]1CC#N` [Example 451, 2-((S)-1-Acryloyl-4-(2-(((2R,5R)-4,5-dimethylmorpholin-2-yl)methoxy)-7-(naphthalen-1-yl)-5,6,7,8-tetrahydropyrido[3,4-d]pyrimidin-4-yl)piperazin-2-yl)acetonitrile], the IC50 is 0.1 to 1000 nM. As to `C=CC(=O)N1CCN(c2nc(OC[C@@H]3CCCN3C)nc3c2CCN(c2nncc4ccccc24)C3)C[C@@H]1CC#N` [Example 431, 2-((S)-1-acryloyl-4-(2-(((S)-1-methylpyrrolidin-2-yl)methoxy)-7-(phthalazin-1-yl)-5,6,7,8-tetrahydropyrido[3,4-d]pyrimidin-4-yl)piperazin-2-yl)acetonitrile], the IC50 was greater than 1000 nM.

On to `C=CC(=O)N1CCN(c2nc(OCC3CN(C)CCO3)nc3c2CCN(c2cc(O)cc4ccccc24)C3)CC1` (stereo not drawn) [Example 193, 1-(4-(7-(3-hydroxynaphthalen-1-yl)-2-((4-methylmorpholin-2-yl)methoxy)-5,6,7,8-tetrahydropyrido[3,4-d]pyrimidin-4-yl)piperazin-1-yl)prop-2-en-1-one], for which the IC50 lay within 0.1 to 1000 nM. Consider `C=CC(=O)N1CCN(c2nc(OC[C@@H]3COCCN3C)nc3c2CCN(c2cccc4ccccc24)C3)CC1CC#N` (stereo partly drawn) [Example 272, 2-(1-acryloyl-4-(2-(((S)-4-methylmorpholin-3-yl)methoxy)-7-(naphthalen-1-yl)-5,6,7,8-tetrahydropyrido[3,4-d]pyrimidin-4-yl)piperazin-2-yl)acetonitrile], for which the IC50 is 0.1 to 1000 nM. `C=CC(=O)N1CCN(c2nc(OCCCN3CCOCC3)nc3c2CCN(c2cc(O)ccc2OC(F)(F)F)C3)CC1` [Example 90, 1-(4-(7-(5-hydroxy-2-(trifluoromethoxy)phenyl)-2-(3-morpholinopropoxy)-5,6,7,8-tetrahydropyrido[3,4-d]pyrimidin-4-yl)piperazin-1-yl)prop-2-en-1-one]: the IC50 was in the range of 0.1 to 1000 nM. Under `C=CC(=O)N1CCN(c2nc(OC[C@@H]3CCCN3C)nc3c2CCN(c2cc(O)cc4ccccc24)C3)C(CO)C1` (stereo partly drawn) [Example 169, 1-[3-(hydroxymethyl)-4-[7-(3-hydroxy-1-naphthyl)-2-[[(2S)-1-methylpyrrolidin-2-yl]methoxy]-6,8-dihydro-5H-pyrido [3,4-d]pyrimidin-4-yl]piperazin-1-yl]prop-2-en-1-one] stands 0.1 to 1000 nM; under `CN1CCC[C@H]1COc1nc2c(c(N3CCN(C(=O)/C=C/CN4CCCC4)[C@@H](CC#N)C3)n1)CCN(c1cccc(Cl)c1C(F)(F)F)C2` [Example 347, 2-[(2S)-4-[7-[3-chloro-2-(trifluoromethyl)phenyl]-2-[[(2S)-1-methylpyrrolidin-2-yl]methoxy]-6,8-dihydro-5H-pyrido[3,4-d]pyrimidin-4-yl]-1-[(E)-4-pyrrolidin-1-ylbut-2-enoyl]piperazin-2-yl]acetonitrile], 0.1 to 1000 nM; under `C=CC(=O)N1CCN(c2nc(OC[C@@H]3CCCN3C)nc3c2CCN(c2cccc(OC)c2F)C3)CC1CC#N` (stereo partly drawn) [Example 307, 2-[4-[7-(2-fluoro-3-methoxy-phenyl)-2-[[(2S)-1-methylpyrrolidin-2-yl]methoxy]-6,8-dihydro-5H-pyrido[3,4-d]pyrimidin-4-yl]-1-prop-2-enoyl-piperazin-2-yl]acetonitrile], greater than 1000 nM. Under `C=CC(=O)N1CCN(c2ncnc3c2CCN(c2c(C)ccc4[nH]ncc24)C3)CC1` [Example 7, 1-(4-(7-(5-methyl-1H-indazol-4-yl)-5,6,7,8-tetrahydropyrido[3,4-d]pyrimidin-4-yl)piperazin-1-yl)prop-2-en-1-one] stands greater than 1000 nM. Consider `C=C(NC(C)=O)C(=O)N1CCN(c2nc(OC[C@@H]3CCCN3C)nc3c2CCN(c2cccc4cccc(C)c24)C3)C[C@@H]1CC#N` [Example 525, N-(3-((S)-2-(cyanomethyl)-4-(7-(8-methylnaphthalen-1-yl)-2-(((S)-1-methylpyrrolidin-2-yl)methoxy)-5,6,7,8-tetrahydropyrido [3,4-d]pyrimidin-4-yl)piperazin-1-yl)-3-oxoprop-1-en-2-yl)acetamide], for which the IC50 fell in the range of 0.1 to 1000 nM. For the compound `C=CC(=O)N1CCN(c2nc(OC[C@H]3CN(C)C(C)(C)CO3)nc3c2CCN(c2cccc4ccccc24)C3)C[C@@H]1CC#N` [Example 452, 2-((S)-1-Acryloyl-4-(7-(naphthalen-1-yl)-2-(((R)-4,5,5-trimethylmorpholin-2-yl)methoxy)-5,6,7,8-tetrahydropyrido[3,4-d]pyrimidin-4-yl)piperazin-2-yl)acetonitrile], the IC50 is 0.1 to 1000 nM. Take `C=CC(=O)N1CCN(c2nc(OCC3CCN(CCO)C3)nc3c2CCN(c2cc(O)cc4ccccc24)C3)CC1` (stereo not drawn) [Example 141, 1-[4-[2-[[1-(2-hydroxyethyl)pyrrolidin-3-yl]methoxy]-7-(3-hydroxy-1-naphthyl)-6,8-dihydro-5H-pyrido[3,4-d]pyrimidin-4-yl]piperazin-1-yl]prop-2-en-1-one]: the IC50 is greater than 1000 nM. For `C=CC(=O)N1CCN(c2nc(OC[C@@H]3CCCN3C)nc3c2CCN(c2cccc(F)c2C)C3)C[C@@H]1CC#N` [Example 388, 2-((S)-1-acryloyl-4-(7-(3-fluoro-2-methylphenyl)-2-(((S)-1-methylpyrrolidin-2-yl)methoxy)-5,6,7,8-tetrahydropyrido[3,4-d]pyrimidin-4-yl)piperazin-2-yl)acetonitrile], the IC50 lay in the range of 0.1 to 1000 nM. Under `C=CC(=O)N1CCN(c2nc(OC[C@@H]3CCCN3C)nc3c2CCN(c2cccc4cccn24)C3)C[C@@H]1CC#N` [Example 442, 2-((S)-1-acryloyl-4-(7-(indolizin-5-yl)-2-(((S)-1-methylpyrrolidin-2-yl)methoxy)-5,6,7,8-tetrahydropyrido[3,4-d]pyrimidin-4-yl)piperazin-2-yl)acetonitrile] stands 0.1 to 1000 nM. Under `CN(C)C/C=C/C(=O)N1CCN(c2nc(OC[C@H]3CCCN3C)nc3c2CCN(c2cccc(Cl)c2C(F)(F)F)C3)C[C@@H]1CC#N` [Example 423, 2-((S)-4-(7-(3-chloro-2-(trifluoromethyl)phenyl)-2-(((R)-1-methylpyrrolidin-2-yl)methoxy)-5,6,7,8-tetrahydropyrido[3,4-d]pyrimidin-4-yl)-1-((E)-4-(dimethylamino)but-2-enoyl)piperazin-2-yl)acetonitrile] stands 0.1 to 1000 nM; under `C=CC(=O)N1CCN(c2nc(OCC3CCN(C4CCCCC4)C3)nc3c2CCN(c2cc(O)cc4ccccc24)C3)CC1` (stereo not drawn) [Example 132, 1-[4-[2-[(1-cyclohexylpyrrolidin-3-yl)methoxy]-7-(3-hydroxy-1-naphthyl)-6,8-dihydro-5H-pyrido[3,4-d]pyrimidin-4-yl]piperazin-1-yl]prop-2-en-1-one], 0.1 to 1000 nM. For `C=CC(=O)N1CCN(c2nc(OC[C@@]3(C)CCCN3C)nc3c2CCN(c2cccc(F)c2C(F)(F)F)C3)CC1CC#N` (stereo partly drawn) [Example 418, 2-(1-acryloyl-4-(2-(((R)-1,2-dimethylpyrrolidin-2-yl)methoxy)-7-(3-fluoro-2-(trifluoromethyl)phenyl)-5,6,7,8-tetrahydropyrido[3,4-d]pyrimidin-4-yl)piperazin-2-yl)acetonitrile], the IC50 was 0.1 to 1000 nM. On to `C=CC(=O)N1CCN(c2nc(OC[C@@H]3C[C@@H](F)CN3C)nc3c2CCN(c2cc(O)cc4ccccc24)C3)CC1` [Example 357, 1-[4-[2-[[(2S,4R)-4-fluoro-1-methyl-pyrrolidin-2-yl]methoxy]-7-(3-hydroxy-1-naphthyl)-6,8-dihydro-5H-pyrido[3,4-d]pyrimidin-4-yl]piperazin-1-yl]prop-2-en-1-one], for which the IC50 is 0.1 to 1000 nM.

For the compound `C=CC(=O)N1CCN(c2nc(N3CC[C@H](N(C)C)C3)nc3c2CCN(c2cccc4ccccc24)C3)C[C@@H]1CC#N` [Example 403], the IC50 fell in the range of 0.1 to 1000 nM. Consider `C=CC(=O)N1CCN(c2nc(OCCCN3CCOCC3)nc3c2CCN(c2cc(O)ccc2C)C3)CC1` [Example 105, 1-(4-(7-(5-hydroxy-2-methylphenyl)-2-(3-morpholinopropoxy)-5,6,7,8-tetrahydropyrido[3,4-d]pyrimidin-4-yl)piperazin-1-yl)prop-2-en-1-one], for which the IC50 was greater than 1000 nM.

Usually IC50 stands for the midpoint of a concentration-inhibition curve.

The record behind these values is patent publication US10689377B2 (Mirati Therapeutics, Inc., priority 2017, dated 2020).
